According to US20120029187A1, “HALOALKYLSULFONANILIDE DERIVATIVE” (Nissan Chemical Industries, Ltd., priority 2009, published 2012):

How the values were obtained:
Assay type in all cases: in vivo
[1] = tested on: barnyardgrass; experiment: Test Example 2: herbicidal effects during the vegetation period under submerged conditions; settings: treatment during the vegetation period under submerged conditions; dose 2.52 g/a
In short: (§1)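 Barnyardgrass, bulrush and ducksalad were co-sown in alluvial soil flooded to 4 cm and grown in a greenhouse at 25 to 30° C. At the 1- or 2-leaf stage, water-diluted emulsifiable concentrates went onto the water surface at set doses (g/a). Herbicidal effect was scored three weeks later on a graded scale.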

[2] = tested on: ducksalad; experiment: as above; settings: treatment during the vegetation period under submerged conditions; dose 2.52 g/a
In short: as §1

[3] = tested on: bulrush; experiment: as above; settings: treatment during the vegetation period under submerged conditions; dose 2.52 g/a
In short: as §1

[4] = tested on: transplanted rice; experiment: Test Example 1: preemergence treatment under submerged conditions, effect on crop; settings: dose 2.52 g/a
In short: (§2)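 Score 0–5 by mortality (5: ≥90%; 0: <5%), read 3 weeks post-application. Paddy-type cups: alluvial soil under 4 cm water, weeds seeded plus transplanted 2.5-leaf rice; diluted EC dosed onto water surface same day as sowing, g/a basis; greenhouse 25 to 30° C.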

[5] = tested on: barnyardgrass; experiment: Test Example 1: herbicidal effects in preemergence treatment under submerged conditions; settings: dose 2.52 g/a
In short: as §2

[6] = tested on: ducksalad; experiment: as above; settings: dose 2.52 g/a
In short: as §2

[7] = tested on: bulrush; experiment: as above; settings: dose 2.52 g/a
In short: as §2

[8] = tested on: water foxtail; experiment: Test Example 3: herbicidal effects in soil treatment; settings: dose 3.2 g/a
In short: (§3)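 Seeds were sown in sterilized diluvial soil and covered with about 1.5 cm of soil. Compounds, formulated as emulsifiable concentrates and diluted with water, were sprayed evenly over the soil surface at set doses in g/a. Herbicidal effect was scored on a rating scale three weeks later.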

[9] = tested on: barnyardgrass; experiment: as above; settings: dose 3.2 g/a
In short: as §3

[10] = tested on: common chickweed; experiment: as above; settings: dose 3.2 g/a
In short: as §3

[11] = tested on: common lambsquater; experiment: as above; settings: dose 3.2 g/a
In short: as §3

[12] = tested on: posumbu knotweed; experiment: as above; settings: dose 3.2 g/a
In short: as §3

[13] = tested on: common ragweed; experiment: as above; settings: dose 3.2 g/a
In short: as §3

[14] = tested on: redroot pigweed; experiment: as above; settings: dose 3.2 g/a
In short: as §3

[15] = tested on: velvetleaf; experiment: as above; settings: dose 3.2 g/a
In short: as §3

[16] = tested on: giant foxtail; experiment: as above; settings: dose 3.2 g/a
In short: as §3

[17] = tested on: wild oat; experiment: as above; settings: dose 3.2 g/a
In short: as §3

[18] = tested on: large crabgrass; experiment: as above; settings: dose 3.2 g/a
In short: as §3

[19] = tested on: Italian ryegrass; experiment: as above; settings: dose 3.2 g/a
In short: as §3

[20] = tested on: water foxtail; experiment: Test Example 4: herbicidal effect in foliage treatment; settings: dose 3.2 g/a, three weeks after application
In short: (§4)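 Seeds sown in sterilized diluvial soil under ~1.5 cm soil cover and grown 14 days in a greenhouse at 25 to 30° C. Emulsifiable concentrates diluted with water were then sprayed uniformly on foliage at predetermined doses (g/a). Herbicidal effect was scored three weeks after application on a graded evaluation scale.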

[21] = tested on: barnyardgrass; experiment: as above; settings: dose 3.2 g/a, three weeks after application
In short: as §4

[22] = tested on: common chickweed; experiment: as above; settings: dose 3.2 g/a, three weeks after application
In short: as §4

[23] = tested on: common lambsquater; experiment: as above; settings: dose 3.2 g/a, three weeks after application
In short: as §4

[24] = tested on: posumbu knotweed; experiment: as above; settings: dose 3.2 g/a, three weeks after application
In short: as §4

[25] = tested on: common ragweed; experiment: as above; settings: dose 3.2 g/a, three weeks after application
In short: as §4

[26] = tested on: redroot pigweed; experiment: as above; settings: dose 3.2 g/a, three weeks after application
In short: as §4

[27] = tested on: velvetleaf; experiment: as above; settings: dose 3.2 g/a, three weeks after application
In short: as §4

[28] = tested on: giant foxtail; experiment: as above; settings: dose 3.2 g/a, three weeks after application
In short: as §4

[29] = tested on: beadstraw; experiment: as above; settings: dose 3.2 g/a, three weeks after application
In short: as §4

[30] = tested on: wild oat; experiment: as above; settings: dose 3.2 g/a, three weeks after application
In short: as §4

[31] = tested on: large crabgrass; experiment: as above; settings: dose 3.2 g/a, three weeks after application
In short: as §4

[32] = tested on: Italian ryegrass; experiment: as above; settings: dose 3.2 g/a, three weeks after application
In short: as §4

O=C1CC(c2ccccc2)OCN1Cc1ccccc1NS(=O)(=O)C(F)(F)F (centres unmarked) [II-9]
A: barnyardgrass, herbicidal effect (evaluation scale 0-5) [1]: 5 (mortality of 90% or above (nearly complete death)) | C: ducksalad, herbicidal effect (evaluation scale 0-5) [2]: 5 (mortality of 90% or above (nearly complete death)) | B: bulrush, herbicidal effect (evaluation scale 0-5) [3]: 5 (mortality of 90% or above (nearly complete death)) | a: transplanted rice, effect on crop (evaluation scale 0-5) [4]: 0 (mortality of less than 5% (almost ineffective)) | A: barnyardgrass, herbicidal effect (evaluation scale 0-5) [5]: 5 (mortality of 90% or above (nearly complete death)) | C: ducksalad, herbicidal effect (evaluation scale 0-5) [6]: 5 (mortality of 90% or above (nearly complete death)) | B: bulrush, herbicidal effect (evaluation scale 0-5) [7]: 5 (mortality of 90% or above (nearly complete death)) | G: water foxtail, herbicidal effect (evaluation scale 0-5) [8]: 5 (mortality of 90% or above (nearly complete death)) | A: barnyardgrass, herbicidal effect (evaluation scale 0-5) [9]: 5 (mortality of 90% or above (nearly complete death)) | N: common chickweed, herbicidal effect (evaluation scale 0-5) [10]: 3 (mortality of at least 40% and less than 70%) | L: common lambsquater, herbicidal effect (evaluation scale 0-5) [11]: 0 (mortality of less than 5% (almost ineffective)) | M: posumbu knotweed, herbicidal effect (evaluation scale 0-5) [12]: 5 (mortality of 90% or above (nearly complete death)) | J: common ragweed, herbicidal effect (evaluation scale 0-5) [13]: 0 (mortality of less than 5% (almost ineffective)) | K: redroot pigweed, herbicidal effect (evaluation scale 0-5) [14]: 0 (mortality of less than 5% (almost ineffective)) | I: velvetleaf, herbicidal effect (evaluation scale 0-5) [15]: 5 (mortality of 90% or above (nearly complete death)) | E: giant foxtail, herbicidal effect (evaluation scale 0-5) [16]: 4 (mortality of at least 70% and less than 90%) | F: wild oat, herbicidal effect (evaluation scale 0-5) [17]: 3 (mortality of at least 40% and less than 70%) | D: large crabgrass, herbicidal effect (evaluation scale 0-5) [18]: 5 (mortality of 90% or above (nearly complete death)) | H: Italian ryegrass, herbicidal effect (evaluation scale 0-5) [19]: 4 (mortality of at least 70% and less than 90%) | G: water foxtail, herbicidal effect [20]: 4 (mortality of at least 70% and less than 90%) | A: barnyardgrass, herbicidal effect [21]: 5 (mortality of 90% or above (nearly complete death)) | N: common chickweed, herbicidal effect [22]: 3 (mortality of at least 40% and less than 70%) | L: common lambsquater, herbicidal effect [23]: 0 (mortality of less than 5% (almost ineffective)) | M: posumbu knotweed, herbicidal effect [24]: 5 (mortality of 90% or above (nearly complete death)) | J: common ragweed, herbicidal effect [25]: 3 (mortality of at least 40% and less than 70%) | K: redroot pigweed, herbicidal effect [26]: 0 (mortality of less than 5% (almost ineffective)) | I: velvetleaf, herbicidal effect [27]: 1 (mortality of at least 5% and less than 20%) | E: giant foxtail, herbicidal effect [28]: 4 (mortality of at least 70% and less than 90%) | O: beadstraw, herbicidal effect [29]: 4 (mortality of at least 70% and less than 90%) | F: wild oat, herbicidal effect [30]: 0 (mortality of less than 5% (almost ineffective)) | D: large crabgrass, herbicidal effect [31]: 0 (mortality of less than 5% (almost ineffective)) | H: Italian ryegrass, herbicidal effect [32]: 1 (mortality of at least 5% and less than 20%)
